# Patent US11779585B2 (priority 2020, dated 2023)
# Several values for one entry are separate records, joined by “and”; a condition that tells them apart may be missing. Identical values can stand only once. Like-named read-outs stand apart in the source and are kept apart here.
# How the values were obtained:
# [1] = African green monkeys, 1.6 mg/kg × 14 days, total dose 22.4; cited from earlier work
# [2] = test system: SARS-CoV-2; test: SARS-CoV-2 infection of Calu3 human lung cells, 72 hours, MOI 2; type: cell-based; conditions: Severe acute respiratory syndrome coronavirus 2, Calu-3, read-out: Efficacy IC90
# [3] = Rats, cited from earlier work
# [4] = Mice, cited from earlier work
# [5] = test system: Vero E6 cells
# [6] = test system: SARS-CoV2; test: microbe, parasite or virus in culture; type: cell-based, SARS-CoV-2; conditions: for inhibition at 0.075 µM: Severe acute respiratory syndrome coronavirus 2, Vero C1008, 0.075 μM; for inhibition at 0.15 µM: Severe acute respiratory syndrome coronavirus 2, Vero C1008, 0.15 μM; for inhibition at 0.3 µM: Severe acute respiratory syndrome coronavirus 2, Vero C1008, 0.3 μM; for inhibition at 0.6 µM: Severe acute respiratory syndrome coronavirus 2, Vero C1008, 0.6 μM
# [7] = cited from earlier work
# [8] = test system: MERS-CoV Jordan virus; type: cell-based; conditions: at a concentration of 0.1 μM, FIG. 1
# [9] = cited from earlier work; remark: listed apart in the source
# [10] = test system: SARS-CoV-2; test: SARS-CoV-2 infection of VeroE6 cells, 48 hours, MOI 0.012; type: cell-based
# [11] = Dogs, cited from earlier work
# [12] = 0.15 μM, title MOI 0.6 (text MOI 1.3), Plate 1
# [13] = 0.3 μM, title MOI 0.6 (text MOI 1.3), Plate 1
# [14] = title MOI 0.6 (text MOI 1.3), Plate 1
# [15] = title MOI 0.6 (text MOI 1.3), Plate 2
structure (smiles),measurement,setting,value
"NC(=O)c1cn([C@@H]2O[C@H](CO)[C@@H](O)[C@H]2O)c2ncnc(N)c12 [Oya1, 4-amino-7-((2R,3R,4S,5R)-3,4-dihydroxy-5-(hydroxymethyl)tetrahydrofuran-2-yl)-7H-pyrrolo[2,3-d]pyrimidine-5-carboxamide]",Effect,[1],lethal
same,IC90,[2],180 nM and 0.056 µg/mL
same,"LD50, multi dose",[3]; × 24 days,0.05 × 24 days mg/kg
same,"LD50, single dose",[3],1.2 mg/kg
same,"LD50, total dose (multi dose)",[3],1.2 mg/kg
same,"LD50, multi dose",[4]; × 9 days,0.5 × 9 days mg/kg
same,"LD50, single dose",[4],4 mg/kg
same,"LD50, total dose (multi dose)",[4],4.5 mg/kg
same,Cytotoxicity,"[5]; 0.0047 μM, MOI 0.6, Plate 1",−3.314% and −2.167% and −3.385%
same,Cytotoxicity,"[5]; 0.0047 μM, MOI 0.6, Plate 2",−3.314% and −2.167% and −3.385%
same,Cytotoxicity,"[5]; 0.0094 μM, MOI 0.6, Plate 1",−0.2353% and −1.9307% and −0.5813%
same,Cytotoxicity,"[5]; 0.0094 μM, MOI 0.6, Plate 2",−0.2353% and −1.9307% and −0.5813%
same,Cytotoxicity,"[5]; 0.0188 μM, MOI 0.6, Plate 1",−0.5761% and 5.048% and 2.474%
same,Cytotoxicity,"[5]; 0.0188 μM, MOI 0.6, Plate 2",−0.5761% and 5.048% and 2.474%
same,Cytotoxicity,"[5]; 0.0375 μM, MOI 0.6, Plate 1",14.23% and 14.79% and 16.69%
same,Cytotoxicity,"[5]; 0.0375 μM, MOI 0.6, Plate 2",14.23% and 14.79% and 16.69%
same,Cytotoxicity,"[5]; 0.075 μM, MOI 0.6, Plate 1",29.56% and 33.64% and 33.6%
same,Cytotoxicity,"[5]; 0.075 μM, MOI 0.6, Plate 2",29.56% and 33.64% and 33.6%
same,Cytotoxicity,"[5]; 0.15 μM, MOI 0.6, Plate 1",49.52% and 51.36% and 51.37%
same,Cytotoxicity,"[5]; 0.15 μM, MOI 0.6, Plate 2",49.52% and 51.36% and 51.37%
same,Cytotoxicity,[5]; [12],49.52% and 51.36% and 51.37%
same,Cytotoxicity,"[5]; 0.3 μM, MOI 0.6, Plate 1",66.57% and 64.56% and 64.1314%
same,Cytotoxicity,"[5]; 0.3 μM, MOI 0.6, Plate 2",66.57% and 64.56% and 64.1314%
same,Cytotoxicity,[5]; [13],66.57%
same,Cytotoxicity,"[5]; 0.6 μM, MOI 0.6, Plate 1",79.78% and 76.76% and 75.88%
same,Cytotoxicity,"[5]; 0.6 μM, MOI 0.6, Plate 2",79.78% and 76.76% and 75.88%
same,"toxicity margin or selectivity index, high",[5]; 8 tests against SARS-CoV-2,8.2
same,"toxicity margin or selectivity index, low",[5]; 8 tests against SARS-CoV-2,3.1
same,average toxicity margin or selectivity index,"[5]; 8 tests against SARS-CoV-2, average",4.8
same,fold increase in activity over chlorpromazine HCl,[6],1000 fold
same,Inhibition,"[6]; 0.0047 μM, MOI 0.6, Plate 2",1.733% and −3.975% and 4.262%
same,Inhibition,"[6]; 0.0047 μM, title MOI 0.6 (text MOI 1.3), Plate 2",−0.7543% and −8.894% and 0.3653%
same,Inhibition,"[6]; 0.0094 μM, MOI 0.2, Plate 1",24.36% and 12.99%
same,Inhibition,"[6]; 0.0094 μM, MOI 0.4, Plate 1",9.365% and 6.857% and 1.875%
same,Inhibition,"[6]; 0.0094 μM, title MOI 0.6 (text MOI 1.3), Plate 2",5.994% and 7.809% and 12.95%
same,Inhibition,"[6]; 0.0188 μM, title MOI 0.6 (text MOI 1.3), Plate 1",4.894% and 1.871% and −1.054%
same,fold better IC50 than GS-441524,[6]; 0.03 μM vs 1.4 μM,47 fold
same,Inhibition,"[6]; 0.0375 μM, MOI 0.2, Plate 2",31.89% and 46.61%
same,Inhibition,"[6]; 0.0375 μM, MOI 0.4, Plate 1",12.31% and 18.82%
same,Inhibition,"[6]; 0.0375 μM, MOI 0.6, Plate 1",27.4624% and 39.74% and 52.32%
same,Inhibition,"[6]; 0.0375 μM, MOI 0.6, Plate 2",59.38% and 43.5% and 83.02%
same,Inhibition,"[6]; 0.075 μM, MOI 0.2, Plate 1",81.55% and 79.85%
same,Inhibition,"[6]; 0.075 μM, MOI 0.2, Plate 2",88.5915% and 83.72% and 67.19%
same,Inhibition,"[6]; 0.075 μM, MOI 0.4, Plate 1",50.83% and 69.6% and 36.13%
same,Inhibition,"[6]; 0.075 μM, MOI 0.4, Plate 2",24.91% and 28.1512%
same,Inhibition,"[6]; 0.075 μM, MOI 0.6, Plate 1",98.66% and 98.3%
same,Inhibition,"[6]; 0.075 μM, MOI 0.6, Plate 2",97.59%
same,Inhibition,"[6]; 0.075 μM, title MOI 0.6 (text MOI 1.3), Plate 1",100.0792% and 80.42%
same,Inhibition,"[6]; 0.075 μM, title MOI 0.6 (text MOI 1.3), Plate 2",99.3891% and 97.8301%
same,Inhibition,"[6]; 0.15 μM, MOI 0.2, Plate 1",99.12% and 95.59%
same,Inhibition,"[6]; 0.15 μM, MOI 0.2, Plate 2",99.22%
same,Inhibition,"[6]; 0.15 μM, MOI 0.4, Plate 1",98.7% and 94.16%
same,Inhibition,"[6]; 0.15 μM, MOI 0.4, Plate 2",86.8%
same,Inhibition,"[6]; 0.15 μM, MOI 0.6, Plate 1",99.78% and 99.74%
same,Inhibition,[6]; [12],100.3795%
same,Inhibition,"[6]; 0.3 μM, MOI 0.2, Plate 1",99.69%
same,Inhibition,"[6]; 0.3 μM, MOI 0.2, Plate 2",99.99%
same,Inhibition,"[6]; 0.3 μM, MOI 0.4, Plate 1",99.72%
same,Inhibition,"[6]; 0.3 μM, MOI 0.6, Plate 1",85.36%
same,Inhibition,[6]; [13],97.59%
same,Inhibition,"[6]; 0.6 μM, MOI 0.2, Plate 1",99.15%
same,Inhibition,"[6]; 0.6 μM, MOI 0.6, Plate 2",96.04%
same,fold greater efficacy (IC50) than remdesivir,[6]; Oya1 0.03 μM vs remdesivir 0.77 μM (Wang et al.),25 fold
same,IC50,"[6]; Severe acute respiratory syndrome coronavirus 2, Vero C1008",30 nM
same,inhibition at 0.0047 µM,"[6]; Severe acute respiratory syndrome coronavirus 2, Vero C1008, 0.0047 μM, MOI 0.4, Plate 2",8.02%
same,inhibition at 0.0094 µM,"[6]; Severe acute respiratory syndrome coronavirus 2, Vero C1008, 0.0094 μM, MOI 0.4, Plate 2",15.2%
same,inhibition at 0.0188 µM,"[6]; Severe acute respiratory syndrome coronavirus 2, Vero C1008, 0.0188 μM, MOI 0.4, Plate 2",15.6%
same,inhibition at 0.0375 µM,"[6]; Severe acute respiratory syndrome coronavirus 2, Vero C1008, 0.0375 μM, MOI 0.4, Plate 1",10.9%
same,inhibition at 0.075 µM,"[6]; MOI 0.2, Plate 1",67.8%
same,inhibition at 0.075 µM,"[6]; MOI 0.4, Plate 2",19.8%
same,inhibition at 0.15 µM,"[6]; MOI 0.2, Plate 1",97.2%
same,inhibition at 0.15 µM,"[6]; MOI 0.2, Plate 2",96%
same,inhibition at 0.15 µM,"[6]; MOI 0.4, Plate 1",95.9%
same,inhibition at 0.15 µM,"[6]; MOI 0.4, Plate 2",83.4%
same,inhibition at 0.15 µM,"[6]; MOI 0.6, Plate 1",98.6%
same,inhibition at 0.15 µM,"[6]; MOI 0.6, Plate 2",99.7%
same,inhibition at 0.15 µM,[6]; [14],101%
same,inhibition at 0.15 µM,[6]; [15],101%
same,inhibition at 0.3 µM,"[6]; MOI 0.2, Plate 1",99.9%
same,inhibition at 0.3 µM,"[6]; MOI 0.2, Plate 2",100%
same,inhibition at 0.3 µM,"[6]; MOI 0.4, Plate 1",96.9%
same,inhibition at 0.3 µM,"[6]; MOI 0.4, Plate 2",91.4%
same,inhibition at 0.3 µM,"[6]; MOI 0.6, Plate 1",100%
same,inhibition at 0.3 µM,"[6]; MOI 0.6, Plate 2",100%
same,inhibition at 0.3 µM,[6]; [14],100%
same,inhibition at 0.3 µM,[6]; [15],101%
same,inhibition at 0.6 µM,"[6]; MOI 0.2, Plate 1",100%
same,inhibition at 0.6 µM,"[6]; MOI 0.2, Plate 2",99.7%
same,inhibition at 0.6 µM,"[6]; MOI 0.4, Plate 1",100%
same,inhibition at 0.6 µM,"[6]; MOI 0.4, Plate 2",67.4%
same,inhibition at 0.6 µM,"[6]; MOI 0.6, Plate 1",100%
same,inhibition at 0.6 µM,"[6]; MOI 0.6, Plate 2",99.7%
same,inhibition at 0.6 µM,[6]; [14],101%
same,inhibition at 0.6 µM,[6]; [15],101%
same,anti-cancer activity,"[7]; Phase I clinical trials, humans",inactive against cancer
same,tolerability in humans,[7]; Phase I clinical trials,well tolerated
same,Reported Safe Clinical Dosing,[7]; daily dosing × 41,0.12 mg/kg/day × 41
same,MTD (not reached at highest single dose tested),"[7]; humans, Cavins 1967",> 0.3 mg/kg
same,Observed toxic effect,"[7]; humans, daily, highest dosing regimen 120 μg/kg/day × 41 days",0
same,Observed toxic effect,"[7]; humans, thrice weekly, highest dosing regimen 50-250 μg/kg/day × 45 days",0
same,Observed toxic effect,"[7]; humans, weekly, highest dosing regimen 200 μg/kg/day × 150 days",0
same,inhibition of the MERS-CoV RNA polymerase,[8],approximately 100%
same,half-life in blood,[9]; Mice,50 h
same,cleared,"[9]; mice, following 12 days post injection",40%
same,IC90,"[10]; Severe acute respiratory syndrome coronavirus 2, Vero C1008, VeroE6, read-out: Efficacy IC90",55 nM and 0.017 µg/mL
same,fold more effective against SARS-CoV-2 than Remdesivir,"[10]; cells with highest infection rate (FIGS. 17A-17B: VeroE6, Calu3)",> 47 fold
same,"LD50, multi dose",[11]; × 14 days,0.3 × 14 days mg/kg
same,"LD50, single dose",[11],2.5 mg/kg
same,"LD50, total dose (multi dose)",[11],4.2 mg/kg
